A value given as a limit tells only on which side of the number the result lay.

For one series, the system named is HIV-1 strain IIIB. The experiment in a line: MTT assay, HIV-1 strain IIIB in MT-4 cells. The class given is cell-based. As to conditions: Human immunodeficiency virus 1, MT4; HIV-1IIIB in MT-4 cells; read-out: EC50 HIV-1IIIB (inhibition of cytopathicity). In general terms: Tetrazolium dyes change colour on reduction, which living cells bring about.
Series [1] concerns the target T1, recombinant HIV-1 RT enzyme (p66/51 dimer) (Human immunodeficiency virus type 1 group M subtype B, UniProt P04585).
T1 construct: recombinant HIV-1 RT enzyme (p66/51 dimer)
The experiment in a line: RT inhibition assay, incorporation of [32P]GTP into poly(rC)/oligo(dG). It counts as biochemical. How it is done: RT Inhibition Assay. Analysis of the effects of the compounds on recombinant HIV-1 RT enzyme (p66/51 dimer) was performed as previously described. See, Buckheit, R. W. J.; Fliakas-Boltz, V.; Decker, W. D.; Robertson, J. L.; Stup, T. L.; Pyle, C. […] Antiviral Res. 1995, 26, 117-132, the disclosure of which is incorporated herein by reference. Briefly, inhibition of purified recombinant reverse transcriptase enzyme was measured by the incorporation of [^32P]GTP into poly(rC)/oligo(dG) (rCdG) homopolymer template primers.

The subject of the next series is HIV-1RF. The series can be described thus: MTS cytoprotection assay, HIV-1RF infection in CEM-SS cells. It counts as cell-based. The note with it: Human immunodeficiency virus 1; HIV-1RF in CEM-SS cells; read-out: EC50 HIV-1RF (inhibition of cytopathicity). Here is the method:
(§1) In Vitro Antiviral Assays. Evaluation of the antiviral activity of compounds against HIV-1RF infection in CEM-SS cells was performed using the MTS cytoprotection assay as previously described. See, Rice, W. G.; Bader, J. P. Discovery and in Vitro Development of AIDS Antiviral Drugs as Biopharmaceuticals. Adv. Pharmacol. (San Diego) 1995, 6, 389-438, the disclosure of which is incorporated herein by reference. […] See, Pauwels, R.; Balzarini, J.; Baba, M.; Snoeck, R.; Schols, D.; Herdewijn, P.; Desmyter, J.; De Clercq, E. Rapid and Automated Tetrazolium-based Colorimetric Assay for Detection of Anti-HIV Compounds. J. Virol. Methods 1988, 20, 309-321, the disclosure of which is incorporated herein by reference.

Series [2] in a line: Cytotoxicity in mock-infected CEM-SS cells. It counts as cell-based. As to conditions: human, uninfected (mock-infected) CEM-SS cells. How it is done:
as §1, with “[…].;” for “D.; Herdewijn, P.; Desmyter, J.;”, “[…].” for “Clercq, E.”

The nature of series [3]: In vitro hydrolytic stability study in rat plasma. The class given is in vitro ADME. As to conditions: rat plasma in vitro, half-life. Here is the method: NMR spectra were obtained at 300 MHz (^1H) and 75 MHz (^13C) in CDCl3 using CHCl3 as internal standard. Flash chromatography was performed with 230-400 mesh silica gel. […] Melting points are uncorrected. Unless otherwise stated, chemicals and solvents were of reagent grade and used as obtained from commercial sources without further purification. Tetrahydrofuran (THF) was freshly distilled from sodium/benzophenone ketyl radical prior to use. Dichloromethane was freshly distilled from calcium hydride prior to use. Lyophilized rat plasma (lot 052K7609) was obtained from Sigma Chemical Co., St. Louis, Mo. All yields given refer to isolated yields.
In vitro Hydrolytic Stability Study in Rat Plasma. […] See, Silvestri, M. A.; Nagarajan, M.; De Clercq, E.; Pannecouque, C.; Cushman, M. Design, Synthesis, Anti-HIV Activities, and Metabolic Stabilities of Alkenyldiarylmethane (ADAM) Non-nucleoside Reverse Transcriptase Inhibitors. J. Med. Chem. 2004, 47, 3149-3162, the disclosure of which is incorporated herein by reference.

Series [4] in a line: Cytotoxicity in mock-infected MT-4 cells. As to conditions: human, uninfected (mock-infected) MT-4 cells. The class given is cell-based.
Another series relates to HIV-2 strain (ROD). The series can be described thus: MTT assay, HIV-2 strain (ROD) in MT-4 cells. The class given is cell-based. The note with it: Human immunodeficiency virus 2, MT4; HIV-2ROD in MT-4 cells; read-out: EC50 HIV-2-ROD (inhibition of cytopathicity).

What is called EC50 is the concentration giving half of the maximal effect. The term IC50 denotes the concentration at which inhibition is half-maximal. Usually CC50 stands for the concentration that lowers cell viability or growth by half. With `COC(=O)CCCC=C(c1cc(C)c2oc(=O)n(C)c2c1)c1cc(C)c2oc(=O)n(C)c2c1` [Compound 66, 6,6-Bis-(3,7-dimethyl-2-oxo-2,3-dihydrobenzoxazol-5-yl)-hex-5-enoic Acid Methyl Ester], the half-maximal effective concentration (EC50) with HIV-1 strain IIIB was 0.22 µM; with HIV-1RF it was 0.62 µM; in the series on HIV-2 strain (ROD), > 32.5 µM. The 50% inhibitory concentration (IC50) in series [1] was found to be 0.5 µM. The CC50 stood at 31 µM in series [2] and 32.5 µM in series [4]. The “Rat Plasma tp1/2 (min ± SD)” value in series [3] came to 0.59 ± 0.01 min.
Turning to `COC(=O)CCC/C=C(/c1cc(C)c(OC)c(C(=O)OC)c1)c1cc(C)c2oc(=O)n(C)c2c1` [Compound 60, (Z)-5-[1-(3,7-Dimethyl-2-oxo-2,3-dihydro-benzoxazol-5-yl)-5-methoxycarbonyl-pent-1-enyl]-2-methoxy-3-methylbenzoic Acid Methyl Ester], the concentration for a half-maximal effect (EC50) with HIV-1 strain IIIB is 1.01 µM; in the series with HIV-1RF, 0.87 µM; in the series with HIV-2 strain (ROD), > 28.2 µM. The half-inhibitory concentration (IC50) in series [1] came out at 0.16 µM. Moreover, the CC50 in series [2] was determined as 9.39 µM; in series [4], 28.2 µM. Also, the “Rat Plasma tp1/2 (min ± SD)” value in series [3] is 1.74 ± 0.00 min.
In the case of `COC(=O)CCC/C=C(/c1cc(F)cc(C(F)(F)F)c1)c1cc(C)c(OC)c(C(=O)OC)c1` [Compound 15, (E)-5-[1-(3-Fluoro-5-trifluoromethylphenyl)-5-methoxycarbonyl-pent-1-enyl]-2-methoxy-3-methylbenzoic Acid Methyl Ester], the EC50 in the series on HIV-1 strain IIIB worked out at 2.54 µM; in the series with HIV-1RF it was 7.3 µM; in the series on HIV-2 strain (ROD) it was 10.6 µM. Besides, the IC50 in series [1] was 55.3 µM. In addition, the figures for the CC50 in series [2] and in series [4] were 9.3 µM and 113 µM, respectively. Moreover, the “Rat Plasma tp1/2 (min ± SD)” value in series [3] amounted to 4.35 ± 0.41 min.
For `COC(=O)c1cc(/C(=C\CCN2CCOC2=O)c2ccc(OC)c(OC)c2)cc(C)c1OC` [Compound 3], the figures for the concentration giving a half-maximal response (EC50) with HIV-1 strain IIIB, in the series with HIV-1RF and in the series with HIV-2 strain (ROD) were > 1.05 µM, > 100 µM and > 1.05 µM, respectively. Moreover, the IC50 in series [1] worked out at 1 µM. The CC50 came to 0.49 µM in series [2] and 1.05 µM in series [4]. Also, the “Rat Plasma tp1/2 (min ± SD)” value in series [3] is recorded as 5.76 ± 0.68 min.
Consider `COC(=O)CCC/C=C(\c1cc(F)cc(C(F)(F)F)c1)c1cc(C)c(OC)c(C(=O)OC)c1` [Compound 12, (Z)-5-[1-(3-Fluoro-5-trifluoromethylphenyl)-5-methoxycarbonyl-pent-1-enyl]-2-methoxy-3-methylbenzoic Acid Methyl Ester], for which the EC50 is > 5.51 µM in the series on HIV-1 strain IIIB, > 5 µM in the series with HIV-1RF and > 5.89 µM in the series on HIV-2 strain (ROD). For the same compound, the IC50 in series [1] is > 100 µM. Further, the results for the CC50 in series [2] and in series [4] were > 5 µM and 5.7 µM, respectively.
For `COC(=O)CCC/C=C(/c1cc(Cl)c(OC)c(C(=O)OC)c1)c1cc(Cl)ccc1OC` [Compound 10, (Z)-3-Chloro-5-[1-(5-chloro-2-methoxyphenyl)-5-methoxycarbonyl-pent-1-enyl]-2-methoxybenzoic Acid Methyl Ester], in series [1], the 50% inhibitory concentration (IC50) is > 100 µM. Further, the concentration for a half-maximal effect (EC50) with HIV-1RF was > 100 µM. The compound further yielded a CC50 in series [2] of 15.5 µM. Moreover, the “Rat Plasma tp1/2 (min ± SD)” value in series [3] came to 0.77 ± 0.08 min.
Consider `COC(=O)CCC/C=C(\c1cc(F)cc(C(F)(F)F)c1)c1cc(C)c2on(C)c(=O)c2c1` [Compound 22, (Z)-6-(2,3-Dihydro-2,7-dimethyl-3-oxo-benzo[d]isoxazol-5-yl)-6-(3-fluoro-5-trifluoromethylphenyl)-hex-5-enoic Acid Methyl Ester], for which the EC50 in the series with HIV-1 strain IIIB is > 35.7 µM; with HIV-1RF, > 100 µM; with HIV-2 strain (ROD) it was > 43.2 µM. The IC50 in series [1] was > 100 µM. The CC50 in series [2] was 16.8 µM; in series [4], 39.8 µM.

The values above are taken from patent US20080300288A1, “Alkenyldiarylmethanes, Fused Analogs And Syntheses Thereof” (PURDUE RESEARCH FOUNDATION, priority 2005, published 2008).
